Measured values: patent publication US6060597A, “Cyclic oligosaccharide, and an agent containing the same for preventing or treating retroviral diseases” (Kikkoman Corporation, priority 1997, dated 2000)

Legend:
[1] = tested on: fresh rat blood; details: stated activity of the standard substance (gift from Meito Sangyo K. K.); cited from earlier work
[2] = tested on: fresh rat blood; assay: anticoagulation activity in fresh rat blood, microtiter plate, visual evaluation of serum separation; type: biochemical; details: citrated fresh rat blood, CaCl2-initiated, 15 minutes at room temperature; for anticoagulation activity: judged against 20 U/mg standard
Method: Anticoagulation activity of sulfated cyclic oligosaccharide
Sulfated CI-8 was examined for its anticoagulation activity. 1% aqueous sulfated CI-8 solution obtained by dissolving 10 mg of sulfated CI-8 sodium in 1 ml de-ionized water was diluted at various concentrations with 0.85% sterilized NaCl solution (physiological saline) to prepare sulfated CI-8 solutions at various concentrations. Solutions of dextran 5000 sodium sulfate (Wako Pure Chemical Industries, Ltd.) at various concentrations were also prepared in the same manner. Standard solutions at various concentrations were prepared using dextran sodium sulfate having 20 U/mg anticoagulation activity (a gift from Meito Sangyo K. K.).
40 μl each of the aqueous solutions were put to each well on a 96-well microtiter plate. Then, 50 μof fresh rat blood containing 0.38% trisodium citrate was put to each well and mixed. Further, 10 μl of 2% aqueous CaCl2 solution and mixed whereby blood-coagulation reaction was initiated. The plate was left at room temperature for 15 minutes and centrifuged at 2000 rpm for 10 minutes, and the separation of the serum in each well was visually evaluated. As a result, the anticoagulation activity of sulfated CI-8 was judged to be about 1/2 relative to the known dextran sodium sulfate, so its activity was judged to be about […]. The activity of dextran 5000 sodium sulfate was judged to be about 40 U/mg.

[3] = target: binding of gp120 to CD4 receptor (HIV-1 M:B_HXB2R, UniProt P04578); assay: inhibition of the binding of gp120 to CD4 receptor (drug discovery kit, duPont); details: concentration range of 0 to 100 mg/ml; FIG. 5
Method: Measurement of anti-HIV activity of sulfated CI-8
Sulfated CI-8 obtained above in Example 1 was examined for the activity of inhibiting the binding of gp120 to CD4 receptor in the concentration range of […] using a drug discovery kit (duPont).

dextran sodium sulfate
anticoagulation activity of the standard [1]: 20 U/mg

dextran 5000 sodium sulfate [reference compound]
anticoagulation activity [2]: about 40 U/mg

cyclic isomaltoctaose-heptadecyl-0-sulfate sodium salt [sulfated CI-8]
activity of inhibiting the binding of gp120 to CD4 receptor [3]: inhibited the binding of pg120 to CD4 in proportion to its concentration | anticoagulation activity [2]: about 10 U/ml | anticoagulation activity relative to the known dextran sodium sulfate ([2]; relative to 20 U/mg standard): about 1/2
